Patent US9302999B2, “Substituted triazoles as herbicides” (E. I. DU PONT DE NEMOURS AND COMPANY, priority 2012, dated 2016)

Experiments:
Barnyardgrass [1] = test: Test C postemergence: barnyardgrass; format: in vivo, Echinochloa crus-galli
Excerpt: (§1) At the same time, plants selected from these crop and weed species and also barley (winter barley, Hordeum vulgare), canarygrass (Phalaris minor), chickweed (common chickweed, Stellaria media) windgrass (Apera spica-venti) and deadnettle (henbit deadnettle, Lamium amplexicaule) were planted in pots containing Redi-Earth® planting medium (Scotts Company, 14111 Scottslawn Road, Marysville, Ohio 43041) comprising spaghnum peat moss, vermiculite, wetting agent and starter nutrients and treated with postemergence applications of test chemicals formulated in the same manner. Plants ranged in height from 2 to 18 cm (1- to 4-leaf stage) for postemergence treatments.
(§2) Treated plants and controls were maintained in a greenhouse for 13 to 15 days, after which time all species were compared to controls and visually evaluated. Plant response ratings, summarized in Table C, are based on a scale of 0 to 100 where 0 is no effect and 100 is complete control. A dash (-) response means no test result.

Oilseed Rape = test: Test C postemergence: oilseed rape; format: in vivo; conditions: 62 g ai/ha, scale 0 to 100 (0 no effect, 100 complete control)
Excerpt: as §1, §2

Barnyardgrass [2] = test: Test C preemergence: barnyardgrass; format: in vivo, Echinochloa crus-galli
Excerpt: Seeds of plant species selected from blackgrass (Alopecurus myosuroides), bromegrass, downy (downy bromegrass, Bromus tectorum), foxtail, green (green foxtail, Setaria viridis), ryegrass, Italian (Italian ryegrass, Lolium multiflorum), winter wheat (Triticum aestivum), wild oat (Avena fatua), galium (catchweed bedstraw, Galium aparine), bermudagrass (Cynodon dactylon), surinam grass (Brachiaria decumbens), cocklebur (common cocklebur, Xanthium strumarium), corn (Zea mays), large crabgrass (Digitaria sanguinalis), woolly cupgrass (Eriochloa villosa), foxtail, giant (giant foxtail, Setaria faberii), goosegrass (Eleusine indica), johnsongrass (Sorghum halepense), kochia (Kochia scoparia), lambsquarters (Chenopodium album), morningglory (Ipomoea coccinea), nightshade (eastern black nightshade, Solanum ptycanthum), nutsedge, yellow (yellow nutsedge, Cyperus esculentus), pigweed (Amaranthus retroflexus), ragweed (common ragweed, Ambrosia elation), soybean (Glycine max), common (oilseed) sunflower (Helianthus annuus), Russian thistle (Salsola kali) and velvetleaf (Abutilon theophrasti) were planted into a blend of loam soil and sand and treated preemergence with test chemicals formulated in a non-phytotoxic solvent mixture which included a surfactant.
as §2

[3] = test system: cocklebur (common cocklebur, Xanthium strumarium); test: Test C pre-/postemergence: cocklebur; format: in vivo
In short: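 Visual injury scored 0–100 (100 = complete control) against untreated controls after 13–15 greenhouse days. Surfactant-containing solvent formulations applied either to soil after sowing (loam/sand) or over 1- to 4-leaf plants, 2–18 cm tall.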

[4] = test system: barley (winter barley, Hordeum vulgare); test: Test C postemergence: barley; format: in vivo
In short: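 Plants at the 1- to 4-leaf stage (2 to 18 cm tall), grown in pots of peat moss/vermiculite planting medium, received postemergence applications of the formulated test chemicals. After 13 to 15 days in a greenhouse, injury was scored visually versus controls from 0 (no effect) to 100 (complete control).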

[5] = test system: blackgrass (Alopecurus myosuroides); test: Test D pre-/postemergence: blackgrass; format: in vivo
In short: (§3)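 Scores run from 0 (no effect) to 100 (complete control), assigned by visual comparison with controls after 14 to 21 days in a controlled environment. Both preemergence application to silt loam and postemergence application to 1- to 4-leaf plants were tested.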

[6] = test system: wheat, spring (spring wheat, Triticum aestivum); test: Test D pre-/postemergence: wheat, spring; format: in vivo
In short: as §3

[7] = 31 g ai/ha, scale 0 to 100 (0 no effect, 100 complete control)
[8] = 62 g ai/ha, scale 0 to 100 (0 no effect, 100 complete control)
[9] = 31 g ai/ha, scale 0 (no effect) to 100 (complete control)
[10] = 62 g ai/ha, scale of 0 to 100, 0 is no effect, 100 is complete control
[11] = 125 g ai/ha, scale 0 to 100, 0 no effect, 100 complete control
[12] = Postemergence, 31 g ai/ha, scale 0 to 100 (0 no effect, 100 complete control)
[13] = Postemergence, 62 g ai/ha, scale 0 to 100 (0 no effect, 100 complete control)
[14] = Postemergence, 125 g ai/ha, scale 0 to 100, 0 no effect, 100 complete control
[15] = Postemergence, 16 g ai/ha, scale 0 to 100
[16] = Preemergence, 16 g ai/ha, scale 0 to 100, 0 no effect, 100 complete control
[17] = Preemergence, 31 g ai/ha, scale 0 to 100, 0 no effect, 100 complete control
[18] = Preemergence, 62 g ai/ha, scale 0 to 100
[19] = Preemergence, 125 g ai/ha, scale 0 to 100

CCc1nn(-c2ccc(C(F)(F)F)cc2)nc1Oc1ccnc(C(F)(F)F)c1 [Compound 169]
Plant response rating, Barnyardgrass (Barnyardgrass [1]; [7]): 15 | Plant response rating, Barnyardgrass (Barnyardgrass [1]; [8]): 25 | Plant response rating, Barnyardgrass (Barnyardgrass [1]; 250 g ai/ha, scale 0 to 100): 85 | Plant response rating, Oilseed Rape (Oilseed Rape): 40 | Plant response rating, Barnyardgrass (Barnyardgrass [2]; [9]): 40 | Plant response rating, Barnyardgrass (Barnyardgrass [2]; [10]): 80 | Plant response rating, Barnyardgrass (Barnyardgrass [2]; [11]): 98

CCCc1nn(-c2ccc(C(F)(F)F)cc2)nc1Oc1ccnc(C(F)(F)F)c1 [Compound 170]
Plant response rating, Barnyardgrass (Barnyardgrass [1]; [7]): 20 | Plant response rating, Barnyardgrass (Barnyardgrass [1]; [8]): 55 | Plant response rating, Barnyardgrass (Barnyardgrass [1]; 250 g ai/ha, scale 0 to 100): 95 | Plant response rating, Oilseed Rape (Oilseed Rape): 50 | Plant response rating, Barnyardgrass (Barnyardgrass [2]; [9]): 80 | Plant response rating, Barnyardgrass (Barnyardgrass [2]; [10]): 98 | Plant response rating, Barnyardgrass (Barnyardgrass [2]; [11]): 100

CCc1nn(-c2ccc(F)c(F)c2)nc1Oc1ccnc(C(F)(F)F)c1 [Compound 171]
Plant response rating, Barnyardgrass (Barnyardgrass [1]; [7]): 10 | Plant response rating, Barnyardgrass (Barnyardgrass [1]; [8]): 15 | Plant response rating, Barnyardgrass (Barnyardgrass [1]; 250 g ai/ha, scale 0 to 100): 75 | Plant response rating, Oilseed Rape (Oilseed Rape): 20 | Plant response rating, Barnyardgrass (Barnyardgrass [2]; [9]): 5 | Plant response rating, Barnyardgrass (Barnyardgrass [2]; [10]): 75 | Plant response rating, Barnyardgrass (Barnyardgrass [2]; [11]): 95

CCCc1nn(-c2ccc(F)c(F)c2)nc1Oc1ccnc(C(F)(F)F)c1 [Compound 172]
Plant response rating, Barnyardgrass (Barnyardgrass [1]; [7]): 40 | Plant response rating, Barnyardgrass (Barnyardgrass [1]; [8]): 45 | Plant response rating, Barnyardgrass (Barnyardgrass [1]; 250 g ai/ha, scale 0 to 100): 90 | Plant response rating, Oilseed Rape (Oilseed Rape): 90 | Plant response rating, Barnyardgrass (Barnyardgrass [2]; [9]): 85 | Plant response rating, Barnyardgrass (Barnyardgrass [2]; [10]): 98 | Plant response rating, Barnyardgrass (Barnyardgrass [2]; [11]): 100

CCCc1nn(-c2ccc(F)cc2F)nc1Oc1ccnc(C(F)(F)F)c1 [Compound 179]
Plant response rating, Barnyardgrass (Barnyardgrass [1]; [7]): 40 | Plant response rating, Barnyardgrass (Barnyardgrass [1]; [8]): 45 | Plant response rating, Barnyardgrass (Barnyardgrass [1]; 250 g ai/ha, scale 0 to 100): 75 | Plant response rating, Oilseed Rape (Oilseed Rape): 40 | Plant response rating, Barnyardgrass (Barnyardgrass [2]; [9]): 40 | Plant response rating, Barnyardgrass (Barnyardgrass [2]; [10]): 100 | Plant response rating, Barnyardgrass (Barnyardgrass [2]; [11]): 100

CCc1nn(-c2ccc(C(F)(F)F)c(F)c2)nc1Oc1ccnc(C(F)(F)F)c1 [Compound 183]
Plant response rating, Barnyardgrass (Barnyardgrass [1]; [7]): 15 | Plant response rating, Barnyardgrass (Barnyardgrass [1]; [8]): 35 | Plant response rating, Barnyardgrass (Barnyardgrass [1]; 250 g ai/ha, scale 0 to 100): 85 | Plant response rating, Oilseed Rape (Oilseed Rape): 25 | Plant response rating, Barnyardgrass (Barnyardgrass [2]; [9]): 40 | Plant response rating, Barnyardgrass (Barnyardgrass [2]; [10]): 95 | Plant response rating, Barnyardgrass (Barnyardgrass [2]; [11]): 100

CCOc1nn(-c2ccc(F)cc2)nc1Cc1ccnc(C(F)(F)F)c1 [Compound 196, 4-[[5-ethoxy-2-(4-fluorophenyl)-2H-1,2,3-triazol-4-yl]methyl]-2-(trifluoromethyl)pyridine]
Plant response rating, Cocklebur [3, 12]: 55 | Plant response rating, Cocklebur [3, 13]: 60 | Plant response rating, Cocklebur [3, 14]: 65 | Plant response rating, Cocklebur ([3]; Postemergence, 250 g ai/ha, scale 0 to 100): 75 | Plant response rating, Cocklebur ([3]; Preemergence, 31 g ai/ha, scale 0 (no effect) to 100 (complete control)): 5 | Plant response rating, Cocklebur ([3]; Preemergence, 125 g ai/ha, scale 0 to 100, 0 no effect, 100 complete control): 45 | Plant response rating, Cocklebur ([3]; Preemergence, 250 g ai/ha, scale 0 to 100, 0 no effect, 100 complete control): 75 | Plant response rating, Barley [4, 7]: 30 | Plant response rating, Barley [4, 8]: 40 | Plant response rating, Barley [4, 11]: 45 | Plant response rating, Barley ([4]; 250 g ai/ha, scale 0 to 100): 50 | Plant response rating: Blackgrass [5, 12]: 65 | Plant response rating: Blackgrass [5, 13]: 85 | Plant response rating: Blackgrass [5, 14]: 80 | Plant response rating, Blackgrass [5, 15]: 15 | Plant response rating, Blackgrass [5, 16]: 10 | Plant response rating, Blackgrass [5, 17]: 20 | Plant response rating, Blackgrass [5, 18]: 100 | Plant response rating, Blackgrass [5, 19]: 100 | Plant response rating: Wheat, Spring [6, 12]: 25 | Plant response rating: Wheat, Spring [6, 13]: 35 | Plant response rating: Wheat, Spring [6, 14]: 35 | Plant response rating, Wheat, Spring [6, 15]: 15 | Plant response rating, Wheat, Spring [6, 16]: 0 | Plant response rating, Wheat, Spring [6, 17]: 5 | Plant response rating, Wheat, Spring [6, 18]: 5 | Plant response rating, Wheat, Spring [6, 19]: 25
